Data published in ChEMBL document CHEMBL6127050, “Simultaneous inhibition of FLT3 and HDAC by novel 6-ethylpyrazine-2-Carboxamide derivatives provides therapeutic advantages in acute myelocytic leukemia” (Eur J Med Chem, 2024).

Tests used:
MOLM-13 [1] = test: Induction of apoptosis in human MOLM-13 cells assessed as viable cells at 0.1 uM incubated for 48 hrs in presence of gilteritinib by Annexin V-FITC staining based flow cytometry analysis (reference value: 94.5 %); type: functional
MOLM-13 [2] = test: Induction of apoptosis in human MOLM-13 cells assessed as viable cells at 0.1 uM incubated for 48 hrs by Annexin V-FITC staining based flow cytometry analysis (reference value: 94.5 %); type: functional
MOLM-13 [3] = test: Induction of cell cycle arrest in human MOLM-13 cells assessed as accumulation of cells at S-phase at 0.05 uM measured for 48 hrs by PI/RNase staining based flow cytometric analysis (reference value: 42.95%); type: functional
MOLM-13 [4] = test: Induction of cell cycle arrest in human MOLM-13 cells assessed as accumulation of cells at G0/G1 phase at 0.05 uM measured for 48 hrs in presence of gilteritinib by PI/RNase staining based flow cytometric analysis (reference value: 46.24 %); type: functional
[5] = Toxicity in BALB/c mouse xenografted with human MOLM-13 cells assessed as body weight loss at 30 mg/kg, IG qd administered 5 days a week and measured on day 9 in presence of gilteritinib; type: organism-based; details: in vivo, po, 216 h, time 9 day
MOLM-13 [6] = test: Induction of apoptosis in human MOLM-13 cells assessed as early apoptotic cells at 0.1 uM incubated for 48 hrs by Annexin V-FITC staining based flow cytometry analysis (reference value: 4.07 %); type: functional
[7] = Toxicity in NOD/SCID mouse xenografted with human MOLM-13 cells assessed as increase in survival rate at 60 mg/kg, IG administered 5 days per week in presence of gilteritinib by Kaplan Mayer survival analysis; type: organism-based; details: in vivo, po, 120 h, time 5 day
MOLM-13 [8] = test: Induction of cell cycle arrest in human MOLM-13 cells assessed as accumulation of cells at G2M phase at 0.05 uM measured for 48 hrs by PI/RNase staining based flow cytometric analysis (reference value: 10.81%); type: functional
MOLM-13 [9] = test: Induction of cell cycle arrest in human MOLM-13 cells assessed as accumulation of cells at S-phase at 0.05 uM measured for 48 hrs in presence of gilteritinib by PI/RNase staining based flow cytometric analysis (reference value: 42.95%); type: functional
[10] = Toxicity in BALB/c mouse xenografted with human MOLM-13 cells assessed as lung damage at 30 mg/kg, IG qd administered 5 days a week and measured on day 9 in presence of gilteritinib by H and E staining based analysis; type: organism-based; details: in vivo, po, 216 h, time 9 day
MOLM-13 [11] = test: Induction of apoptosis in human MOLM-13 cells assessed as necrotic at 0.1 uM incubated for 48 hrs by Annexin V-FITC staining based flow cytometry analysis (reference value: 0.013 %); type: functional
MOLM-13 [12] = test: Induction of apoptosis in human MOLM-13 cells assessed as late apoptotic cells at 0.1 uM incubated for 48 hrs by Annexin V-FITC staining based flow cytometry analysis (reference value: 1.40 %); type: functional
MOLM-13 [13] = test: Induction of apoptosis in human MOLM-13 cells assessed as early apoptotic cells at 0.1 uM incubated for 48 hrs in presence of gilteritinib by Annexin V-FITC staining based flow cytometry analysis (reference value: 4.07 %); type: functional
MOLM-13 [14] = test: Induction of apoptosis in human MOLM-13 cells assessed as necrotic cells at 0.1 uM incubated for 48 hrs in presence of gilteritinib by Annexin V-FITC staining based flow cytometry analysis (reference value: 0.013 %); type: functional
MOLM-13 [15] = test: Induction of cell cycle arrest in human MOLM-13 cells assessed as accumulation of cells at G0/G1 phase at 0.05 uM measured for 48 hrs by PI/RNase staining based flow cytometric analysis (reference value: 46.24 %); type: functional
[16] = Cytotoxicity against HEK293T cells incubated for 48 hrs; type: toxicity, cell-based, HEK-293T; details: human
MOLM-13 [17] = test: Induction of apoptosis in human MOLM-13 cells assessed as late apoptotic cells at 0.1 uM incubated for 48 hrs in presence of gilteritinib by Annexin V-FITC staining based flow cytometry analysis (reference value: 1.40 %); type: functional
MOLM-13 [18] = test: Induction of cell cycle arrest in human MOLM-13 cells assessed as accumulation of cells at G2M phase at 0.05 uM measured for 48 hrs in presence of gilteritinib by PI/RNase staining based flow cytometric analysis (reference value: 10.81%); type: functional

Compound: O=C(CCCCCCC(=O)Nc1ccccc1)NO [VORINOSTAT]
- Activity (MOLM-13 [1]): 46.8%
- Activity (MOLM-13 [2]): 83%
- Activity (MOLM-13 [3]): 43.26%
- Activity (MOLM-13 [4]): 64.51%
- Activity [5]: Non-Toxic
- Activity (MOLM-13 [6]): 14.8%
- Activity [7]: Non-Toxic
- Activity (MOLM-13 [8]): 7.58%
- Activity (MOLM-13 [9]): 28.26%
- Activity [10]: Non-Toxic
- Activity (MOLM-13 [11]): 0.18%
- Activity (MOLM-13 [12]): 2.01%
- Activity (MOLM-13 [13]): 35%
- Activity (MOLM-13 [14]): 0.88%
- Activity (MOLM-13 [15]): 49.16%
- IC50 at 48 h [16]: 2.21 µM
- Activity (MOLM-13 [17]): 17.4%
- Activity (MOLM-13 [18]): 7.24%
